Source: PMC8087116 (European journal of pharmaceutical sciences : official …, 2017)

How the values were obtained:
[1] = test system: HL-60-TB; assay: NCI-60 screening, leukemia HL-60-TB; type: cell-based, human
[2] = test system: NCI-60 human tumor cell lines; conditions: for Inhibition against one or more cell lines: single dose 10 μM
[3] = test system: HOP-62; assay: NCI-60 screening, NSCL HOP-62; type: cell-based, human
[4] = test system: NCI-H23; assay: NCI-60 screening, NSCL NCI-H23; type: cell-based, human
[5] = test system: MOLT-4; assay: NCI-60 screening, leukemia MOLT-4; type: cell-based, human
[6] = test system: HOP-92; assay: NCI-60 screening, NSCL HOP-92; type: cell-based, human
[7] = test system: PC-3; assay: NCI-60 screening, prostate PC-3; type: cell-based, human
[8] = test system: CCRF-CEM; assay: NCI-60 screening, leukemia CCRF-CEM; type: cell-based, human
[9] = test system: MDA-MB-468; assay: NCI-60 screening, breast MDA-MB-468; type: cell-based, human
[10] = test system: COLO-205; assay: NCI-60 dose-response, colon COLO-205; type: cell-based, human; conditions: COLO-205 colon cancer cell line, five-concentration dose-response
[11] = test system: SW-620; assay: NCI-60 dose-response, colon SW-620; type: cell-based, human; conditions: SW-620 colon cancer cell line, five-concentration dose-response
[12] = test system: SR cell line; assay: NCI-60 dose-response, leukemia SR; type: cell-based, human; conditions: five-concentration dose-response
[13] = test system: MDA-MB-231/ATCC; assay: NCI-60 dose-response, breast MDA-MB-231/ATCC; type: cell-based, human; conditions: MDA-MB-231/ATCC breast cancer cell line, five-concentration dose-response
[14] = test system: LOX IMVI; assay: NCI-60 dose-response, melanoma LOX IMVI; type: cell-based, human; conditions: LOX IMVI melanoma cell line, five-concentration dose-response
[15] = test system: MALME-3 M; assay: NCI-60 dose-response, melanoma MALME-3 M; type: cell-based, human; conditions: MALME-3 M melanoma cell line, five-concentration dose-response
[16] = test system: M14; assay: NCI-60 dose-response, melanoma M14; type: cell-based, human; conditions: M14 melanoma cell line, five-concentration dose-response
[17] = test system: SK-MEL-5; assay: NCI-60 dose-response, melanoma SK-MEL-5; type: cell-based, human; conditions: SK-MEL-5 melanoma cell line, five-concentration dose-response
[18] = test system: RPMI-8226; assay: NCI-60 screening, leukemia RPMI-8226; type: cell-based, human

For `COC(=O)[C@H](NS(=O)(=O)N(c1cccc(F)c1)C1CCN(Cc2ccc(F)cc2)CC1)C(C)C` [Compound 18], the “Inhibition of sensitive tumor cell lines at 10 μM conc.” value (from here on “Inhibition … at 10 μM conc.”) [1] was “Leukemia: HL-60-TB (56%)” and the “Inhibition against one or more cell lines” value [2] was > 50%.

For `CC(C)[C@@H](NS(=O)(=O)N(c1cccc(F)c1)C1CCN(Cc2ccc(O)cc2)CC1)C(=O)O` [Compound 19], the “Inhibition … at 10 μM conc.” value [3] was 88%, the “Inhibition … at 10 μM conc.” value [4] was 58% and the “Inhibition against one or more cell lines” value [2] was > 50%.

With `COC(=O)[C@@H](CC(C)C)NS(=O)(=O)N(c1cccc(F)c1)C1CCN(Cc2ccc(C(F)(F)F)cc2)CC1` [Compound 25] the “Inhibition … at 10 μM conc.” value [5] was 56%, the “Inhibition … at 10 μM conc.” value [6] was 60% and the “Inhibition … at 10 μM conc.” value [7] was 50%. The “Inhibition against one or more cell lines” value [2] was > 50%.

Work on `COC(=O)[C@@H](C)CNS(=O)(=O)N(c1cc(C(F)(F)F)cc(C(F)(F)F)c1)C1CCN(Cc2ccc(F)cc2)CC1` [Compound 26] yielded a GI50 ([8]; CCRF-CEM leukemia cell line, five-concentration dose-response) of 12.8 µM, a GI50 ([9]; MDA-MB-468 breast cancer cell line, five-concentration dose-response) of 3.25 µM and a GI50 [10] of 1880 nM. The GI50 [11] was 11.1 µM, the GI50 [12] was 3.18 µM and the GI50 [13] was 12.7 µM. The GI50 [14] was 8.1 µM, the GI50 [15] was 6.89 µM and the GI50 [16] was 3.75 µM. For the same compound, the GI50 [17] was 3.19 µM, the “Cytotoxicity as indicated by LC50 values, words” value [2] was “not cytotoxic for most of the cell lines” and the GI50 ([2]; all remaining subpanel cell lines of NCI-60) was ≤ 21 µM. For the same compound, the “TGI (total growth inhibition, cytostatic activity), words” value ([2]; dose-response, NCI-60 panel) was “total growth inhibition of most of the cell lines at moderate concentrations”.

For `COC(=O)[C@@H](NS(=O)(=O)N(c1ccc(F)cc1)C1CCN(C(=O)c2ccc(F)cc2)CC1)C(C)C` [Compound 36], the “Inhibition … at 10 μM conc.” value [1] was “Leukemia: HL-60-TB (57%)” and the “Inhibition against one or more cell lines” value [2] was > 50%.

With `COC(=O)[C@H](NS(=O)(=O)N(c1ccc(F)cc1)C1CCN(Cc2ccc(F)cc2)CC1)C(C)C` [Compound 37] the “Inhibition … at 10 μM conc.” value [1] was “Leukemia: HL-60-TB (60%)” and the “Inhibition against one or more cell lines” value [2] was > 50%.

`COC(=O)[C@@H](OC(=O)NS(=O)(=O)N(c1ccc(F)cc1)C1CCN(Cc2ccc(F)cc2)CC1)C(C)C` [Compound 39] was tested, and the “Inhibition against one or more cell lines” value [2] was > 50%.

`O=S(=O)(c1ccc(Br)cc1)N(c1cccc(F)c1)C1CCN(Cc2ccc(F)cc2)CC1` [Compound 49] was tested, and the “Inhibition … at 10 μM conc.” value ([8]; 10 μM, Leukemia CCRF-CEM) was 51%, the “Inhibition … at 10 μM conc.” value [18] was 65% and the “Inhibition … at 10 μM conc.” value ([9]; 10 μM, Breast MDA-MB-468) was 53%. For the same compound, the “Inhibition against one or more cell lines” value [2] was > 50%.
